The subject of series [1] is L protein, the Respiratory Syncytial virus polymerase. In kind it is cell-based, RSV, strain A2. Particulars: Hep-2 cells, 17AAG 5 μM.
Series [2] concerns poliovirus. Further details: species or system cPVR transgenic mice. As to conditions: mouse, in vivo.
The conditions of series [3]: mouse, in vivo, ip.
The next series relates to capsid precursor P1. In kind it is cell-based, poliovirus.
The test system of series [4] is poliovirus. The series can be described thus: microbe, parasite or virus in culture. It is filed as cell-based, Poliovirus Mahoney type 1 strain. As to conditions: Enterovirus C, HeLa S3, read-out: inhibition of virus production in vRNA transfected cells.
Series [5] concerns poliovirus. In kind it is cell-based.
Series [6] relates to poliovirus. The series can be described thus: microbe, parasite or virus in culture. In kind it is cell-based, Poliovirus Mahoney type 1 strain. As to conditions: Enterovirus C, HeLa S3, 7 h, read-out: IC50 of inhibition of poliovirus replication.
The test system of series [7] is poliovirus. Briefly: microbe, parasite or virus in culture. In kind it is cell-based, Poliovirus Mahoney type 1 strain. As to conditions: Enterovirus C, Fibroblast, read-out: inhibition of poliovirus replication.

Here are results for 5 compounds from patent US20100093824A1 (priority 2006, published 2010).

Read-outs that look alike come from different tables or passages of the source. Non-standard residues stand in square brackets, D forms with d. Residues, ends and D or L forms follow the SMILES beside them. Nle = CCCC[C@H](N)C(=O)O

Turning to `C=CCNC1=C2C[C@@H](C)CC(OC)[C@H](O)[C@@H](C)/C=C(\C)C(OC(N)=O)C(OC)/C=C\C=C(/C)C(=O)NC(=CC1=O)C2=O` (stereo partly shown) [17AAG, 17-Allylamino-17-demethoxygeldanamycin], the “effect on RSV L protein” value in series [1] is reported as “causes degradation of L protein”. In addition, the “viral load in the CNS” value with poliovirus [2] is given as “dramatically reduced the viral load”. The “mice with virus decreased to undetectable levels” value is on record as 4 of 8 with poliovirus [2] (2.5 mg/kg) and 5 of 8 with poliovirus [2] (25 mg/kg). Further, the “apparent toxicity to the treated animal” value in series [3] is recorded as “did not result in any apparent toxicity”.

With `CCCC[C@@H](C=O)NC(=O)[C@H](CC(C)C)NC(=O)[C@H](CC(C)C)NC(C)=O` [ALLN, N-Acetyl-L-leucyl-L-leucyl-L-norleucinal] (Ac-Leu-Leu-[Nle]-aldehyde), the “protection of P1 from GA-induced degradation” value in the series with capsid precursor P1 is “protected P1 from degradation”.

As for `COC1=C2C[C@@H](C)C[C@H](OC)[C@H](O)[C@@H](C)/C=C(\C)[C@H](OC(N)=O)[C@@H](OC)/C=C\C=C(/C)C(=O)NC(=CC1=O)C2=O` [GA, Geldanamycin], the inhibition at 2 µM in the series on poliovirus [4] was 95%. Also, the “reduction in virus production” value in the series with poliovirus [5] is approximately 50%. Moreover, the “time in which P1 was readily degraded after treatment” value in the series with capsid precursor P1 was not above 3 h. Moreover, in the series on poliovirus [6], the IC50 came to 110 nM. For the same compound, the inhibition at 0.1 µM with poliovirus [7] was more than 99%.

As for `CC(=O)N[C@@H](CSC(=O)[C@]1([C@@H](O)C(C)C)NC(=O)[C@H](C)[C@@H]1O)C(=O)O` [lactacystin, Lactacystin], in the series with capsid precursor P1, the “protection of P1 from GA-induced degradation” value was “protected P1 from degradation”.

Turning to trichostatin A [TSA], the “maximal reduction in virus production” value in the series with poliovirus [5] was 30%.
